Measurements reported in PubChem BioAssay AID1963828 (Molecular Pharmacology Branch, DTP, NCI, 2024).
pIC50: −log10 of the molar value.

System: 991263-137-R1-J2-PDC complex spheroid viability
Assay: Anticancer human tumor 991263-137-R1-J2-PDC patient-derived colon adenocarcinoma cell line growth inhibition [POLQ]
Details: for pIC50: curve of first compound; for viability, T/C: stronger effect = lower value
Procedure, shortened: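 Growth inhibition in 3D: complex spheroids (tumor PDC, HUVEC, MSC) treated with POLQ inhibitor combinations; where Cmax unknown, highest tested concentration 10 microM, except SN-38 at 1 microM.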
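Also: spheroids exposed to compounds for 7 days before readout.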
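For viability, T/C in this document: 100% = DMSO vehicle control viability.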

CC(=O)O[C@H]1C(=O)[C@@]2(C)[C@H]([C@H](OC(=O)c3ccccc3)[C@]3(O)C[C@H](OC(=O)[C@H](O)[C@@H](NC(=O)c4ccccc4)c4ccccc4)C(C)=C1C3(C)C)[C@]1(OC(C)=O)CO[C@@H]1C[C@@H]2O + Cc1cccc(N(C)C(=O)C2C(O)CCN2c2nc(C)cc(C(F)(F)F)c2C#N)c1
pIC50 (second compound 0.0316 µM): 5.87 | pIC50 (second compound 0.1 µM): 5.74 | pIC50 (second compound 0.316 µM): 5.98 | pIC50 (second compound 1 µM): 6.08 | pIC50 (second compound 3.16 µM): 5.82 | pIC50 (second compound 10 µM): 6.53 | viability, T/C (second compound 0.0316 µM, first compound 0.00949 µM): 80.4% | viability, T/C (second compound 0.0316 µM, first compound 0.03 µM): 85.6% | viability, T/C (second compound 0.0316 µM, first compound 0.0949 µM): 85.2% | viability, T/C (second compound 0.0316 µM, first compound 0.3 µM): 67.5% | viability, T/C (second compound 0.0316 µM, first compound 0.949 µM): 53.2% | viability, T/C (second compound 0.0316 µM, first compound 3 µM): 46.1% | viability, T/C (second compound 0.1 µM, first compound 0.00949 µM): 93.4% | viability, T/C (second compound 0.1 µM, first compound 0.03 µM): 92.5% | viability, T/C (second compound 0.1 µM, first compound 0.0949 µM): 84.2% | viability, T/C (second compound 0.1 µM, first compound 0.3 µM): 74% | viability, T/C (second compound 0.1 µM, first compound 0.949 µM): 57.9% | viability, T/C (second compound 0.1 µM, first compound 3 µM): 44% | viability, T/C (second compound 0.316 µM, first compound 0.00949 µM): 85.8% | viability, T/C (second compound 0.316 µM, first compound 0.03 µM): 86.3% | viability, T/C (second compound 0.316 µM, first compound 0.0949 µM): 83.4% | viability, T/C (second compound 0.316 µM, first compound 0.3 µM): 74.1% | viability, T/C (second compound 0.316 µM, first compound 0.949 µM): 50.1% | viability, T/C (second compound 0.316 µM, first compound 3 µM): 46.1% | viability, T/C (second compound 1 µM, first compound 0.00949 µM): 82.6% | viability, T/C (second compound 1 µM, first compound 0.03 µM): 89.2% | viability, T/C (second compound 1 µM, first compound 0.0949 µM): 85% | viability, T/C (second compound 1 µM, first compound 0.3 µM): 63.2% | viability, T/C (second compound 1 µM, first compound 0.949 µM): 51.3% | viability, T/C (second compound 1 µM, first compound 3 µM): 42.8% | viability, T/C (second compound 3.16 µM, first compound 0.00949 µM): 87.3% | viability, T/C (second compound 3.16 µM, first compound 0.03 µM): 79.5% | viability, T/C (second compound 3.16 µM, first compound 0.0949 µM): 80.7% | viability, T/C (second compound 3.16 µM, first compound 0.3 µM): 63.8% | viability, T/C (second compound 3.16 µM, first compound 0.949 µM): 56% | viability, T/C (second compound 3.16 µM, first compound 3 µM): 42.1% | viability, T/C (second compound 10 µM, first compound 0.00949 µM): 79.9% | viability, T/C (second compound 10 µM, first compound 0.03 µM): 88.4% | viability, T/C (second compound 10 µM, first compound 0.0949 µM): 69.5% | viability, T/C (second compound 10 µM, first compound 0.3 µM): 51.6% | viability, T/C (second compound 10 µM, first compound 0.949 µM): 50.7% | viability, T/C (second compound 10 µM, first compound 3 µM): 46.7%
